The results in this text go back to ChEMBL document CHEMBL5291721, “A preclinical secondary pharmacology resource illuminates target-adverse drug reaction associations of marketed drugs” (Nat Commun, 2023).

Experiment [1] has as its target Sodium channel protein type 5 subunit alpha (Homo sapiens, UniProt Q14524). It is filed as functional, cell-based.
Another experiment deals with Glucagon receptor (Homo sapiens, UniProt P47871).
In experiment [2] the target is T1, Gastric inhibitory polypeptide receptor (Homo sapiens, UniProt P48546).
T1 sequence (P48546 whole entry): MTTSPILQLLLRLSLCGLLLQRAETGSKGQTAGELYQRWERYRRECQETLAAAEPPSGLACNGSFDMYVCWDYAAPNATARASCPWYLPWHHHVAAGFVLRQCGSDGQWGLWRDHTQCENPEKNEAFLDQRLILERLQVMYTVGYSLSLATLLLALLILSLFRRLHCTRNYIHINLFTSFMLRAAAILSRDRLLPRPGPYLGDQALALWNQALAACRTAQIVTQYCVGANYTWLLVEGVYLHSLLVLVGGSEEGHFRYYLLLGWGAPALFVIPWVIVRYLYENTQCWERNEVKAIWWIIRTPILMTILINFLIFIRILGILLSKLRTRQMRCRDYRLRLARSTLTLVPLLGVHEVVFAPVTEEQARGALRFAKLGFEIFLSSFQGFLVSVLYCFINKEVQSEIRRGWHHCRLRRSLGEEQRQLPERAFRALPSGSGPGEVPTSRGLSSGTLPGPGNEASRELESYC

Experiment [3] deals with T2, Corticotropin-releasing factor receptor 1 (Homo sapiens, UniProt P34998).
T2 sequence (P34998 whole entry): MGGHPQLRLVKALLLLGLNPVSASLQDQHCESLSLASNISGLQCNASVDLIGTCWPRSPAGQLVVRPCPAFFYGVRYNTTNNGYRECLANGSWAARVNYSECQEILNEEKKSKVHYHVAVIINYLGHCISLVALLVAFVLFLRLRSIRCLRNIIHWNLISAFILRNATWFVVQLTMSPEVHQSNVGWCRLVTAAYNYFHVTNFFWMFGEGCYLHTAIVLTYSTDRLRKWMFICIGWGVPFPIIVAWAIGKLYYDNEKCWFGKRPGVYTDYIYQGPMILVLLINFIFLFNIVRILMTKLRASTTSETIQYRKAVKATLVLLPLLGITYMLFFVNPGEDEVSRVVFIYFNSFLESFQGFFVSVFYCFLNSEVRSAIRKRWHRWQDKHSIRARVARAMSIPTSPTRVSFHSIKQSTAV

Experiment [4] deals with T3, Neuropeptide Y receptor type 2 (Homo sapiens, UniProt P49146).
T3 sequence (P49146 whole entry): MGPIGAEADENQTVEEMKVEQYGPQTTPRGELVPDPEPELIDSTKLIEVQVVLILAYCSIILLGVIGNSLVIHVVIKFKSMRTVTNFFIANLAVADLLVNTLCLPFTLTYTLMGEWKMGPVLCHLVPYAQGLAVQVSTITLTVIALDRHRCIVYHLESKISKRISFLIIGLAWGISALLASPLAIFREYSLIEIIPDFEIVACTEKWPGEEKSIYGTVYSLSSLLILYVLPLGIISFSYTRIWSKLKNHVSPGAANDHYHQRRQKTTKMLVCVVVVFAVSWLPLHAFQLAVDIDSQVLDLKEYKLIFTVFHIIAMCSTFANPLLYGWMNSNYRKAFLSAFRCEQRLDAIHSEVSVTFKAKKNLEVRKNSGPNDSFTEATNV

The target of another experiment is T4, D(4) dopamine receptor (Homo sapiens, UniProt P21917).
T4 sequence (P21917 whole entry): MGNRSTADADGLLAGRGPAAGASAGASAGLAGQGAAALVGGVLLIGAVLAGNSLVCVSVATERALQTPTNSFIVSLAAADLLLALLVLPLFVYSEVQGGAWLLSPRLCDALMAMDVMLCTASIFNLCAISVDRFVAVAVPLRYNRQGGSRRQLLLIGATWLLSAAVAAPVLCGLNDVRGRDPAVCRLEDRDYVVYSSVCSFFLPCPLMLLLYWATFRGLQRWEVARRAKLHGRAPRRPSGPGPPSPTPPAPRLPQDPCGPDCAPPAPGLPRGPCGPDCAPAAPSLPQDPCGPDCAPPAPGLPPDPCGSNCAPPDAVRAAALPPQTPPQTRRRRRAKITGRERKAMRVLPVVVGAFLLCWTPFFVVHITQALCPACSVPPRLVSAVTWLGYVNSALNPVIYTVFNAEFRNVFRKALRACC

In another experiment the target is D(1A) dopamine receptor (Homo sapiens, UniProt P21728).
For experiment [5], the target named is T5, Corticotropin-releasing factor receptor 2 (Homo sapiens, UniProt Q13324).
T5 sequence (Q13324 whole entry): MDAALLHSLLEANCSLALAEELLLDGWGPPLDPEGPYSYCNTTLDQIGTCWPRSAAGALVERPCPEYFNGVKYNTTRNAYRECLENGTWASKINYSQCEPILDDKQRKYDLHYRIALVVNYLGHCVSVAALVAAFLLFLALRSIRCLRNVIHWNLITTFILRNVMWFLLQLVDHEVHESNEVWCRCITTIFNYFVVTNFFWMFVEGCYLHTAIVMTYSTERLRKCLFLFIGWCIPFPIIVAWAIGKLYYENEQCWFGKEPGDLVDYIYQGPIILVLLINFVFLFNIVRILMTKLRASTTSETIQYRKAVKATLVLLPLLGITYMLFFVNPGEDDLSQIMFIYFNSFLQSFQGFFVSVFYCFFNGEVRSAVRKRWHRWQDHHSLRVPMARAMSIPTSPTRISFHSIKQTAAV
Further: assay procedure not described here.

Sodium channel protein type 5 subunit alpha, sequence (Q14524 whole entry): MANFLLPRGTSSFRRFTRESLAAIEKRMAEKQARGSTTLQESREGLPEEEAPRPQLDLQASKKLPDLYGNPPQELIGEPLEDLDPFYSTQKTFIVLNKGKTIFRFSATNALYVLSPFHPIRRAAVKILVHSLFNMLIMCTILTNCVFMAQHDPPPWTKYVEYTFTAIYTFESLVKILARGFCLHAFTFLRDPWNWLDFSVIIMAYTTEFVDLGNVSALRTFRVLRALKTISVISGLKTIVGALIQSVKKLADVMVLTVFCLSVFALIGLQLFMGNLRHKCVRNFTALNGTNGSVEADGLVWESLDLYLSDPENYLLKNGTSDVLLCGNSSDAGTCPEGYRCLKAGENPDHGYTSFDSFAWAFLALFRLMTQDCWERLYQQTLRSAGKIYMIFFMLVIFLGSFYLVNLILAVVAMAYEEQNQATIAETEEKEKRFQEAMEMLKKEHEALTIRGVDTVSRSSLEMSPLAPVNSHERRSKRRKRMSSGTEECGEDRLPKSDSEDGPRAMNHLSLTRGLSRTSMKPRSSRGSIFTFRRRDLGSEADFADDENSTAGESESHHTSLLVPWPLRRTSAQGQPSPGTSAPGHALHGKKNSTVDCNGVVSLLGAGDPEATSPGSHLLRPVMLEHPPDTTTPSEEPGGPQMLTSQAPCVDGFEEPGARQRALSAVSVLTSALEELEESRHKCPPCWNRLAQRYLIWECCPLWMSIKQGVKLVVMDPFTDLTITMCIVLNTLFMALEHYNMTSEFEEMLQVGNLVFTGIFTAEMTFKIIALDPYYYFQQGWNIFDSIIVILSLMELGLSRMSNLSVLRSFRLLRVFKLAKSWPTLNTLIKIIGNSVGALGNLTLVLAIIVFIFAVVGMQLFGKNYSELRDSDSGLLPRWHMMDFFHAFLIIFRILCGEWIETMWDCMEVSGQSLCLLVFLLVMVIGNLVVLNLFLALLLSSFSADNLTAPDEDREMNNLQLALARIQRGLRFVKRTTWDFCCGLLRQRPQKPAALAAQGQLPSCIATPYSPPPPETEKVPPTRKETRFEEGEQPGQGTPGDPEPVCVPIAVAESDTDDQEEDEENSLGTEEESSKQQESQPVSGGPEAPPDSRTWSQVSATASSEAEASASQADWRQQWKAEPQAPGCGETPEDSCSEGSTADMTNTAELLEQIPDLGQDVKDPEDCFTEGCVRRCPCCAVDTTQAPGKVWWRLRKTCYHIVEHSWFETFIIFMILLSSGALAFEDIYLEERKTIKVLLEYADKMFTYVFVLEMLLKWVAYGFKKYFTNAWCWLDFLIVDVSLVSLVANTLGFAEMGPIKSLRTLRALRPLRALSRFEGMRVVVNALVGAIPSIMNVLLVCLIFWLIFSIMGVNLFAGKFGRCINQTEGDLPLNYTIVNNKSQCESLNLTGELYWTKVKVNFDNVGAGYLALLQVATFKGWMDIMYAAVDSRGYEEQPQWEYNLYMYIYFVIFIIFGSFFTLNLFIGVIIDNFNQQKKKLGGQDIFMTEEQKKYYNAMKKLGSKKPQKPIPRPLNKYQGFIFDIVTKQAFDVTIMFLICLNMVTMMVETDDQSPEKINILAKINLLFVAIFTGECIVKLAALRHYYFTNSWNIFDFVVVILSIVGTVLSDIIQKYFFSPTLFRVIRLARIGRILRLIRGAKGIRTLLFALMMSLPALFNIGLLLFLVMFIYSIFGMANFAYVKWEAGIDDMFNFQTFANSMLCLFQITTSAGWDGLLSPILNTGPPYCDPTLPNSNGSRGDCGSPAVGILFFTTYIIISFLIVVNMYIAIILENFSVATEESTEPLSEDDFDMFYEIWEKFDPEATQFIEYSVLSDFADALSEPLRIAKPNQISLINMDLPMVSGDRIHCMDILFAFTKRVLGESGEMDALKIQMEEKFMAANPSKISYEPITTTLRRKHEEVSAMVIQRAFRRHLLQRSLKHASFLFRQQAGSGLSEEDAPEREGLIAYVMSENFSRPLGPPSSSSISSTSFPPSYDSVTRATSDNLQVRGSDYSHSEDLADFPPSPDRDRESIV
D(1A) dopamine receptor, sequence (P21728 whole entry): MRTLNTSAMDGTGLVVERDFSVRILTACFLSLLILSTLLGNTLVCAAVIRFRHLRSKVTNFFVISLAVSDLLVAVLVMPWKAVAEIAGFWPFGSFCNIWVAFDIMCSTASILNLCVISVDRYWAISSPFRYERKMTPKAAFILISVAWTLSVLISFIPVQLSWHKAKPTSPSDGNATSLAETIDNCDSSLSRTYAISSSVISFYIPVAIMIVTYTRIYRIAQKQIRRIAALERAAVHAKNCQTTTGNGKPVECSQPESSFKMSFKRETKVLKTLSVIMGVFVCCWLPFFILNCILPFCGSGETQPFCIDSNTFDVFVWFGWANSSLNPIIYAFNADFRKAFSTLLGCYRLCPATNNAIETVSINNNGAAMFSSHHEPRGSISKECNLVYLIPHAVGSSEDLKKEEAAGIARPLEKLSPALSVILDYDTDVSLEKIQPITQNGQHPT
Glucagon receptor, sequence (P47871 whole entry): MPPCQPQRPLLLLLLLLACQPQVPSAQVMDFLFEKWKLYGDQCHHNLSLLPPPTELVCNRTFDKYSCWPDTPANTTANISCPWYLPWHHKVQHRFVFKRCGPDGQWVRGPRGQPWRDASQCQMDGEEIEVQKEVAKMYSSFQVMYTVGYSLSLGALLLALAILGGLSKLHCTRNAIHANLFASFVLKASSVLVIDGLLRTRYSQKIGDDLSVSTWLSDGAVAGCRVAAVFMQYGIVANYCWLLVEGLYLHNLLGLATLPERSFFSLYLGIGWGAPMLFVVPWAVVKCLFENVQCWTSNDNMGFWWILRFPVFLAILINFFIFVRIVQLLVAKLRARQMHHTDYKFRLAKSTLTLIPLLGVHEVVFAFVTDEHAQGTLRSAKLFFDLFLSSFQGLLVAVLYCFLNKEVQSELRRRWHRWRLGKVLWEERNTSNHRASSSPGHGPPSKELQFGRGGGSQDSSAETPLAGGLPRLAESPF

As usually defined, the AC50 is the concentration at which the activity in the assay is half-maximal. Regarding `Fc1ccc([C@@H]2CCNC[C@H]2COc2ccc3c(c2)OCO3)cc1` [PAROXETINE], the AC50 in experiment [1] is 25.4 µM; at Glucagon receptor, over 30 µM; in experiment [2] it was over 30 µM; in experiment [3], over 30 µM; in experiment [4], over 30 µM; on D(4) dopamine receptor it was over 10 µM. In addition, the AC50 is over 10 µM at D(1A) dopamine receptor and over 30 µM in experiment [5].
